# Assay results published in patent US20230081426A1, “COMPOUNDS AND METHODS FOR KRAS MODULATION AND INDICATIONS THEREFOR” (Plexxikon Inc., priority 2020, published 2023).
# Where two headings read alike, the source gives them in different places.
# How the values were obtained:
# [1] = biological target: T1, G12C-mutant human KRAS (amino acid residues 1-188) (Homo sapiens, UniProt P01116, G12C); assay: KRAS Binding Disruption Assay (AlphaScreen; biotinylated KRpep-2d analogue or RAF1-RBD), G12C; conditions: geometric mean, read-out: KRAS GMean IC50 (uM) MUTATION: G12C
# T1 construct: G12D or G12C-mutant human KRAS (amino acid residues 1-188) with FLAG tag; made in house; host or cells: E. coli
# Method: Compound binding disrupts the interaction of KRpep-2d or RAF1-RBD with KRAS, leading to a decrease in Alpha signal.
# All assay components were prepared in 20 mM HEPES (pH 7.5), 100 mM NaCl, 5 mM MgCl2, 0.01% Tween-20, and 0.01% BSA. Biotinylated analogues of KRpep-2d were custom synthesized. The binding disruption assays were performed using 5-20 nM of mutant KRAS and 5-20 nM of either biotinylated KRpep-2d analogue or RAF1-RBD. 19 μL of KRAS protein and 4 μL of biotinylated KRpep-2d or RAF1-RBD were added to the wells of a 384-well plate containing 1 μL of various concentrations of test compound or DMSO vehicle. 16 wells containing KRAS, biotinylated KRpep-2d or RAF1-RBD, and 5% DMSO served as high controls. 16 wells containing KRAS only and 5% DMSO served as low controls. Binding reactions were incubated for 1 hour at 25° C., then Anti-Flag Acceptor and Streptavidin Donor Alpha beads were added at a final concentration of 10 μg/mL for an additional hour at room temperature. Alpha signal was read out on a Perkin Elmer Envision HTS instrument. The percentage inhibition at individual compound concentrations relative to high and low controls was calculated. The data were analyzed by using nonlinear regression to generate IC50 values.
# [2] = biological target: T2, G12D-mutant human KRAS (amino acid residues 1-188) (Homo sapiens, UniProt P01116, G12D); assay: KRAS Binding Disruption Assay (AlphaScreen; biotinylated KRpep-2d analogue or RAF1-RBD), G12D; conditions: for IC50: geometric mean, read-out: KRAS GMean IC50 (uM) MUTATION: G12D
# T2 construct: G12D or G12C-mutant human KRAS (amino acid residues 1-188) with FLAG tag; made in house; host or cells: E. coli
# Method in brief: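 Displacement format with mutant KRAS, biotinylated KRpep-2d analogue or RAF1-RBD (5-20 nM each) at pH 7.5 with 5 mM MgCl2.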
# [3] = biological target: T3, G12V-mutant human KRAS (amino acid residues 1-188) (Homo sapiens, UniProt P01116, G12V); assay: KRAS Binding Competition Assay (AlphaScreen; biotinylated KRpep-2d analogue), G12V; conditions: geometric mean, read-out: KRAS GMean IC50 (uM) MUTATION: G12V
# T3 construct: G12V-mutant human KRAS (amino acid residues 1-188) with FLAG tag was purified from E. coli; made in house; host or cells: E. coli
Compound,IC50 [1] [µM],IC50 ([2]; KRAS G12D) [µM],IC50 [3] [µM],"Improved KRAS G12D Biochemical Potency of Compounds with Bridged vs Non-Bridged R^1 Groups ([2]; Table 4, fold more potent than the compared compound of WO 2017/172979)","IC50 ([2]; Table 4, comparison with compounds of WO 2017/172979) [µM]"
"Cc1cc(CN2[C@@H]3CC[C@H]2CN(c2nc(OCC45CCCN4CCC5)nc4cc(-c5cc(O)cc6ccccc56)ccc24)C3)no1 [P-0006, 4-(4-((1R,5S)-8-((5-methylisoxazol-3-yl)methyl)-3,8-diazabicyclo[3.2.1]octan-3-yl)-2-((tetrahydro-1H-pyrrolizin-7a(5H)-yl)methoxy)quinazolin-7-yl)naphthalen-2-ol]",10 to 100,0.0001 to 10,–,–,–
"CCc1cc2c(N3C[C@H]4CC[C@@H](C3)N4)nc(OC[C@@H]3CCCN3C)nc2c(F)c1-c1cc(O)cc2ccccc12 [P-0013, 4-(4-((1R,5S)-3,8-diazabicyclo[3.2.1]octan-3-yl)-6-ethyl-8-fluoro-2-(((S)-1-methylpyrrolidin-2-yl)methoxy)quinazolin-7-yl)naphthalen-2-ol]",0.0001 to 10,0.0001 to 10,–,–,–
"CN(C)CCNc1nc(N2C[C@H]3CC[C@@H](C2)N3)c2ccc(-c3cc(O)cc4ccccc34)cc2n1 [P-0022, 4-(4-((1R,5S)-3,8-diazabicyclo[3.2.1]octan-3-yl)-2-((2-(dimethylamino)ethyl)amino)quinaz-olin-7-yl)naphthalen-2-ol]",10 to 100,0.0001 to 10,–,–,–
"CN(C)CCOc1nc(N2C[C@H]3CC[C@@H](C2)N3)c2ccc(-c3cc(O)cc4ccccc34)cc2n1 [P-0023, 4-(4-((1R,5S)-3,8-diazabicyclo[3.2.1]octan-3-yl)-2-(2-(dimethylamino)ethoxy)quinazolin-7-yl)naphthalen-2-ol]",10 to 100,0.0001 to 10,–,P-0023 is about 57 times more potent than Compound 149 in WO 2017/172979.,0.29
"C=Cc1cc2c(N3C[C@H]4CC[C@@H](C3)N4)nc(OC[C@@H]3CCCN3C)nc2c(F)c1-c1cc(O)cc2ccccc12 [P-0036, 4-[4-(3,8-Diazabicyclo[3.2.1]octan-3-yl)-8-fluoro-2-[[(2S)-1-methylpyrrolidin-2-yl]methoxy]-6-vinyl-quinazolin-7-yl]naphthalen-2-ol]",0.0001 to 10,0.0001 to 10,–,–,–
"CN1CCC[C@H]1COc1nc(N2CC3CCCC(C2)N3)c2cc(Cl)c(-c3cc(O)cc4ccccc34)c(F)c2n1 [P-0039, 4-(4-(3,9-diazabicyclo[3.3.1]nonan-3-yl)-6-chloro-8-fluoro-2-(((S)-1-methylpyrrolidin-2-yl)methoxy)quinazolin-7-yl)naphthalen-2-ol]",0.0001 to 10,0.0001 to 10,–,–,–
"CN(C)C(=O)CCNc1nc(N2C[C@H]3CC[C@@H](C2)N3)c2ccc(-c3cc(O)cc4ccccc34)cc2n1 [P-0058, 3-((4-((1R,5S)-3,8-diazabicyclo[3.2.1]octan-3-yl)-7-(3-hydroxynaphthalen-1-yl)quinazolin-2-yl)amino)-N,N-dimethylpropanamide]",10 to 100,10 to 100,–,–,–
"CN(C)C(=O)CNc1nc(N2C[C@H]3CC[C@@H](C2)N3)c2ccc(-c3cc(O)cc4ccccc34)cc2n1 [P-0059, 2-((4-((1R,5S)-3,8-diazabicyclo[3.2.1]octan-3-yl)-7-(3-hydroxynaphthalen-1-yl)quinazolin-2-yl)amino)-N,N-dimethylacetamide]",10 to 100,10 to 100,–,–,–
"CNCCNc1nc(N2C[C@H]3CC[C@@H](C2)N3)c2ccc(-c3cc(O)cc4ccccc34)cc2n1 [P-0061, 4-(4-((1R,5S)-3,8-diazabicyclo[3.2.1]octan-3-yl)-2-((2-(methylamino)ethyl)amino)quinazo-lin-7-yl)naphthalen-2-ol]",100 to 1000,0.0001 to 10,–,–,–
"CC(CN)Oc1nc(N2C[C@H]3CC[C@@H](C2)N3)c2ccc(-c3cc(O)cc4ccccc34)cc2n1 (stereo partly drawn) [P-0062, 4-(2-((1-aminopropan-2-yl)oxy)-4-((1R,5S)-3,8-diazabicyclo[3.2.1]octan-3-yl)quinazolin-7-yl)naphthalen-2-ol]",10 to 100,0.0001 to 10,–,–,–
"CN1CCC[C@H]1COc1nc(N2C[C@H]3CC[C@@H](C2)O3)c2ccc(-c3cc(O)cc4ccccc34)c(F)c2n1 [P-0114, 4-(4-((1R,5S)-8-oxa-3-azabicyclo[3.2.1]octan-3-yl)-8-fluoro-2-(((S)-1-methylpyrrolidin-2-yl)methoxy)quinazolin-7-yl)naphthalen-2-ol]",0.0001 to 10,0.0001 to 10,–,–,–
"CCc1cccc2[nH]cc(-c3ncc4c(N5C[C@H]6CC[C@@H](C5)N6)nc(OC[C@@]56CCCN5C[C@H](F)C6)nc4c3F)c12 [P-0505, 4-((1R,5S)-3,8-diazabicyclo[3.2.1]octan-3-yl)-7-(4-ethyl-1H-indol-3-yl)-8-fluoro-2-(((2R,7aS)-2-fluorotetrahydro-1H-pyrrolizin-7a(5H)-yl)methoxy)pyrido[4,3-d]pyrimidine]",0.0001 to 10,0.0001 to 10,–,–,–
"Oc1cc(-c2ccc3c(N4C[C@H]5CC[C@@H](C4)N5)nc(N4CC(N5CC(O)C5)C4)nc3c2F)c2ccccc2c1 [P-0632, 1′-(4-((1R,5S)-3,8-diazabicyclo[3.2.1]octan-3-yl)-8-fluoro-7-(3-hydroxynaphthalen-1-yl)quinazolin-2-yl)-[1,3′-biazetidin]-3-ol]",–,0.0001 to 10,0.0001 to 10,–,–

# More lines, main results first:
IC50 [1] [µM],IC50 ([2]; KRAS G12D) [µM],IC50 [3] [µM],Compound,"Improved KRAS G12D Biochemical Potency of Compounds with Bridged vs Non-Bridged R^1 Groups ([2]; Table 4, fold more potent than the compared compound of WO 2017/172979)","IC50 ([2]; Table 4, comparison with compounds of WO 2017/172979) [µM]"
0.0001 to 10,0.0001 to 10,–,"CC(=O)NCCCN1CCCC1COc1nc(N2C[C@H]3CC[C@@H](C2)N3)c2ccc(-c3cc(O)cc4ccccc34)c(F)c2n1 (mixture of isomers) [P-0674, N-(3-((RS)-2-(((4-((1R,5S)-3,8-diazabicyclo[3.2.1]octan-3-yl)-8-fluoro-7-(3-hydroxynaphthalen-1-yl)quinazolin-2-yl)oxy)methyl)pyrrolidin-1-yl)propyl)acetamide]",–,–
–,0.0001 to 10,100 to 1000,"Oc1cc(-c2ccc3c(N4C[C@H]5CC[C@@H](C4)N5)nc(N4CC(O)C4)nc3c2F)c2ccccc2c1 [P-0633, 1-(4-((1R,5S)-3,8-diazabicyclo[3.2.1]octan-3-yl)-8-fluoro-7-(3-hydroxynaphthalen-1-yl)quinazolin-2-yl)azetidin-3-ol]",–,–
–,0.0001 to 10,100 to 1000,"OCC1CCN(c2nc(N3C[C@H]4CC[C@@H](C3)N4)c3ccc(-c4cc(O)cc5ccccc45)c(F)c3n2)C1 (stereo partly drawn) [P-0634, 4-(4-((1R,5S)-3,8-diazabicyclo[3.2.1]octan-3-yl)-8-fluoro-2-(3-(hydroxymethyl)pyrrolidin-1-yl)quinazolin-7-yl)naphthalen-2-ol]",–,–
–,0.0001 to 10,10 to 100,"CN(C)C1(C)CN(c2nc(N3C[C@H]4CC[C@@H](C3)N4)c3ccc(-c4cc(O)cc5ccccc45)c(F)c3n2)C1 [P-0635, 4-(4-((1R,5S)-3,8-diazabicyclo[3.2.1]octan-3-yl)-2-(3-(dimethylamino)-3-methylazetidin-1-yl)-8-fluoroquinazolin-7-yl)naphthalen-2-ol]",–,–
0.0001 to 10,0.0001 to 10,–,"Oc1cc(-c2ccc3c(N4C[C@H]5CC[C@@H](C4)N5)nc(N4CC(O)(C5CC5)C4)nc3c2F)c2ccccc2c1 [P-0636, 1-(4-((1R,5S)-3,8-diazabicyclo[3.2.1]octan-3-yl)-8-fluoro-7-(3-hydroxynaphthalen-1-yl)quinazolin-2-yl)-3-cyclopropylazetidin-3-ol]",–,–
0.0001 to 10,–,–,"Cc1cccc2cccc(-c3ccc4c(N5C[C@H]6CC[C@@H](C5)N6C(=O)CC#N)nc(OCC56CCCN5CCC6)nc4c3F)c12 [P-0813, 3-((1R,5S)-3-(8-fluoro-7-(8-methylnaphthalen-1-yl)-2-((tetrahydro-1H-pyrrolizin-7a(5H)-yl)methoxy)quinazolin-4-yl)-3,8-diazabicyclo[3.2.1]octan-8-yl)-3-oxopropanenitrile]",–,–
